In US9814720B2, “Compositions and methods of inhibiting IL-17 expression of neutrophils” (priority 2014, dated 2017):

Columns and labels:
RORγt = RORγt nuclear translocation in IL-6/23-stimulated human neutrophils (nuclear extract western blot, confocal); assay type: cell-based
Protocol: Neutrophils were isolated from peripheral blood of healthy donors. Peripheral blood was incubated in 3% Dextran, and neutrophils isolated by Ficoll gradient centrifugation (Fisher Scientific), with neutrophil purity determined by staining with Wright-Giemsa.
Murine or human neutrophils were suspended at a density of 10^6 cells/ml and incubated with […] of recombinant mouse or human IL-6 and 2 μg/ml IL-23 in RPMI, and the cells were maintained for 1-3 h at 37° C. in 5% CO2. Various inhibitors were used for assessing STAT3 activation. For STAT3, neutrophils were treated with either the STAT3-SH2 inhibitor, Stattic (20 μM) obtained from Tocris, or the JAK-1, 2 inhibitor, INC424, (aka Ruxolitinib; 20 μM (Selleck BioChem)). For the determination of RORγt-dependent signaling, SR1001 (20 μM; Sigma) was used, which inhibits RORγt binding to the IL-17 promoter site. All inhibitors were added to neutrophils 2 h prior to recombinant IL-6 and IL-23 stimulation. […]
Neutrophils collected from primed or naïve C57BL/6 mice or unstimulated murine or human neutrophils were incubated with recombinant IL-6 and IL-23 for 60 min. […] Total protein was quantified using the BCA method, denatured with 2× Laemmli buffer (Sigma) and heated to 95° C. for 5 minutes. […] Ten μg of total protein was analyzed on a 12% SDS polyacrylamide gel, and transferred to nitrocellulose. […]

[1] = test system: bone marrow-derived murine neutrophils; assay: ROS production (CFDA) by murine bone marrow neutrophils incubated with Aspergillus hyphae; assay type: cell-based, C57BL/6 mice; details: IL-6/23-stimulated, inhibitor 20 μM, FIG. 6C
Protocol: (§1) Murine and human neutrophils were incubated with p-STAT3 (20 μM Stattic or 20 μM INC424) or RORγt inhibitors (20 μM SR1001) for 2 h. Then the cells were stimulated with […] of rIL-6 and 2 μg/ml of rIL-23 for 3 h, washed, and 2×10^5 bone marrow-derived murine neutrophils or 10^5 human peripheral blood neutrophils, with or without recombinant IL-17A, were added to each well with growing hyphae. RPMI media was used as positive control (unimpaired growth), and PBS was used as a negative control (no growth (data not shown)). After 16 h the wells were washed with PBS and the dsRed fungal mass was quantified in a 96-well fluorometer at 550/600 nm excitation/emission filter (Synergy HT, Biotek).
In vitro ROS production measured by CFDA was previously described. Briefly, 100 μg/100 μl of A. fumigatus hyphal extract (AspHE) were incubated with 2×10^5 murine or human neutrophils. Neutrophils were treated for 1 h with 1 μM Carboxyfluorescein diacetate (H2CFDA (Sigma)), which will fluoresce following ROS oxidation. Neutrophils were collected and analyzed by flow cytometry. H2CFDA pulsed neutrophils that had not been incubated with AspHE were used to set the ROS histogram gate. The average mean intensity was calculated by Accuri flow software and graphed in Prism.

A. fumigatus hyphae = assay: In vitro fungal killing assay (hyphal coincubation) with murine neutrophils; assay type: cell-based, Aspergillus fumigatus; details: IL-6/23-stimulated, inhibitor 20 μM, FIG. 6D
Description: Aspergillus strains—For cornea infections and in vitro fungal killing assays, an RFP expressing strain of A. fumigatus (Af-dsRed) was used. This strain is gpdA promoter driven to constitutively express monomeric dsRed. For subcutaneous “priming” injections, heat-killed, swollen conidia Aspergillus fumigatus strain Af-BP was used. For the Aspergillus hyphal extract used in ROS assay, A. fumigatus strain Af-BP hyphae were pulverized in liquid nitrogen, filtered through a 30 μm pre-separation filter (Miltenyi Biotec) and protein measured by the BCA method (Pierce). Aspergillus hyphal extracts (AspHE) were stored at −20° C. and used at a final concentration of 1 mg/ml.
A hyphal coincubation assay was used to study the ability of murine and human neutrophils to inhibit A. fumigatus hyphal growth as described. Briefly, 12,500 A. fumigatus dsRed expressing conidia (strain Af-dsRed) per 200 μl Sabouraud dextrose media were added to wells of black-walled 96 well plates with an optically clear bottom (CoStar 3720). After 6 h, the conidia had germinated and the hyphae became adherent to the wells, at which time the medium was removed.
as §1

**Q.** Which results are given for `O=[N+]([O-])c1ccc2c(c1)S(=O)(=O)C=C2` [Stattic]?
**A.** RORγt localisation by confocal microscopy (RORγt): only detected in the cytoplasm; RORγt in nuclear extracts (RORγt; western blot, FIG. 5B): no longer detectable; ROS production ([1]; plus rIL-17A): ROS production was increased; ROS production ([1]; without rIL-17A): not increased above the level produced by naïve neutrophils; hyphal killing activity (A. fumigatus hyphae; plus rIL-17A): enhanced hyphal killing activity was detected; hyphal growth (fluorescent fungal mass) (A. fumigatus hyphae; without rIL-17A): did not further impede hyphal growth
